Tests used:
rat P2X3 receptor = biological target: T1, rat P2X3 receptor (Rattus norvegicus, UniProt P49654); test: P2X3 FLIPR (Fluorometric Imaging Plate Reader) assay, CHO-K1 cells; type: cell-based; settings: CHO-K1 cells transfected with cloned rat P2X3; agonist α,β-meATP 1 μM; Fluo-3 calcium fluorescence; read-out: P2X3 (pKi) (converted)
T1 construct: expressed in transfected cells; host or cells: CHO-K1
T1 sequence (P49654 1-397): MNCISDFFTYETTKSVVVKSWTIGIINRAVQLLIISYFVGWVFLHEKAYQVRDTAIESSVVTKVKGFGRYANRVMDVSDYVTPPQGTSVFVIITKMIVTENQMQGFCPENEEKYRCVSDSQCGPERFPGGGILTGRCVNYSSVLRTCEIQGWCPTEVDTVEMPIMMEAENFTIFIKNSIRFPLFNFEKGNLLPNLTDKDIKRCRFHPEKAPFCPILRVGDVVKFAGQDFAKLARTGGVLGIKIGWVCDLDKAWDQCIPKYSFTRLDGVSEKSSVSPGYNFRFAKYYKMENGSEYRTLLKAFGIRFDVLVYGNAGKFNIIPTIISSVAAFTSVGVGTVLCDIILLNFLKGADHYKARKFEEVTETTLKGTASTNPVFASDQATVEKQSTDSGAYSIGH
Experimental: (§1) P2X3/P2X2/3 FLIPR (Fluorometric Imaging Plate Reader) Assay
(§2) CHO-K1 cells were transfected with cloned rat P2X3 or human P2X2/3 receptor subunits and passaged in flasks. 18-24 hours before the FLIPR experiment, cells were released from their flasks, centrifuged, and resuspended in nutrient medium at 2.5×10^5 cells/ml. The cells were aliquoted into black-walled 96-well plates at a density of 50,000 cells/well and incubated overnight in 5% CO2 at 37° C. On the day of the experiment, cells were washed in FLIPR buffer (calcium- and magnesium-free Hank's balanced salt solution, 10 mM HEPES, 2 mM CaCl2, 2.5 mM probenecid; FB). Each well received 100 μl FB and 100 μl of the fluorescent dye Fluo-3 AM [2 μM final conc.]. After a 1 hour dye loading incubation at 37° C., the cells were washed 4 times with FB, and a final 75 μl/well FB was left in each well.
(§3) Test compounds (dissolved in DMSO at 10 mM and serially diluted with FB) or vehicle were added to each well (25 μl of a 4× solution) and allowed to equilibrate for 20 minutes at room temperature. The plates were then placed in the FLIPR and a baseline fluorescence measurement (excitation at 488 nm and emission at 510-570 nm) was obtained for 10 seconds before a 100 μl/well agonist or vehicle addition. The agonist was a 2× solution of α,β-meATP producing a final concentration of 1 μM (P2X3) or 5 μM (P2X2/3). Fluorescence was measured for an additional 2 minutes at 1 second intervals after agonist addition. A final addition of ionomycin (5 μM, final concentration) was made to each well of the FLIPR test plate to establish cell viability and maximum fluorescence of dye-bound cytosolic calcium. Peak fluorescence in response to the addition of α,β-meATP (in the absence and presence of test compounds) was measured and inhibition curves generated using nonlinear regression. PPADS, a standard P2X antagonist, was used as a positive control.

human P2X2/3 receptor = biological target: T2, human P2X2/3 receptor (Homo sapiens, UniProt P56373+Q9UBL9); test: P2X2/3 FLIPR (Fluorometric Imaging Plate Reader) assay, CHO-K1 cells; type: cell-based; settings: CHO-K1 cells transfected with human P2X2/3; agonist α,β-meATP 5 μM; Fluo-3 calcium fluorescence; read-out: P2X2/3 (pKi) (converted)
T2 construct: expressed in transfected cells; host or cells: CHO-K1
T2 sequence (Q9UBL9 1-471): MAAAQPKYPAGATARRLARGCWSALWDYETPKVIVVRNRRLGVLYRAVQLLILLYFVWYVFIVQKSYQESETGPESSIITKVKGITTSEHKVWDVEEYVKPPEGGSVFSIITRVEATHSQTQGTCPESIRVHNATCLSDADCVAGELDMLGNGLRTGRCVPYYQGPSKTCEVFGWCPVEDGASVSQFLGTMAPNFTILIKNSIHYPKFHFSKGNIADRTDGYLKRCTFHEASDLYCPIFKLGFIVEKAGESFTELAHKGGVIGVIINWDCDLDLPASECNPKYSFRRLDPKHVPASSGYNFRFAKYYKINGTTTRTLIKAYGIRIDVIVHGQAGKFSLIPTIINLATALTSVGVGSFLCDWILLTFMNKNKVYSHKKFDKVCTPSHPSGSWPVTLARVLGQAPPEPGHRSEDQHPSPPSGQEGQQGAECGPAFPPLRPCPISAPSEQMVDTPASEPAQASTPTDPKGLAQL
T2 sequence (P56373 1-397): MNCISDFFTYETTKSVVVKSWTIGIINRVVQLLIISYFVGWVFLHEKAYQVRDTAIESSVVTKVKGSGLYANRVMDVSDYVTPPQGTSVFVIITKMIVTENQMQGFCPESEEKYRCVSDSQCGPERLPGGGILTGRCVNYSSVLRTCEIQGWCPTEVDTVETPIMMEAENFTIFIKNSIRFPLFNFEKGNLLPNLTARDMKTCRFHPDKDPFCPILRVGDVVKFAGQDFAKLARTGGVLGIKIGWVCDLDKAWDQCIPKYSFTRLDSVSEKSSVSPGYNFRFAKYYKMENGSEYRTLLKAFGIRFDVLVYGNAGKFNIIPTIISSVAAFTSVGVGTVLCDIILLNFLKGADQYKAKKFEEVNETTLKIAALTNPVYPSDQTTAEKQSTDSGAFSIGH
Experimental: as §1, §2, §3

SMILES	Ki (rat P2X3 receptor) [µM]	Ki (human P2X2/3 receptor) [µM]
COCC(C)NC(=O)c1cc(-c2ccc(C)cc2)cc(-c2csnn2)c1 (stereo not shown) [Compound 2, 4′-Methyl-5-[1,2,3]thiadiazol-4-yl-biphenyl-3-carboxylic acid (2-methoxy-1-methyl-ethyl)-amide]	4.68	–
Cc1ccc(-c2cc(C(=O)N[C@H](C)CO)cc(-c3nsnc3C(C)C)c2)nc1 [Compound 1, N-((R)-2-Hydroxy-1-methyl-ethyl)-3-(4-isopropyl-[1,2,5]thiadiazol-3-yl)-5-(5-methyl-pyridin-2-yl)-benzamide]	0.00692	0.0724
Cc1ccc(-c2cc(C(=O)NCc3cnc(C)cn3)cc(-c3snnc3C(C)C)c2)nc1 [Compound 3, 3-(4-Isopropyl-[1,2,3]thiadiazol-5-yl)-N-(5-methyl-pyrazin-2-ylmethyl)-5-(5-methyl-pyridin-2-yl)-benzamide]	0.00912	0.0372

Second part, the compound after the results:

Ki (rat P2X3 receptor) [µM]	Ki (human P2X2/3 receptor) [µM]	SMILES
0.0182	0.0437	Cc1ccc(-c2cc(C(=O)NCc3cnc(C)cn3)cc(-c3nsnc3C(C)C)c2)nc1 [Compound 7, 3-(4-Isopropyl-[1,2,5]thiadiazol-3-yl)-N-(5-methyl-pyrazin-2-ylmethyl)-5-(5-methyl-pyridin-2-yl)-benzamide]
0.0166	0.105	Cc1ccc(-c2cc(C(=O)NCc3ncc(C)cn3)cc(-c3snnc3C(C)C)c2)nc1 [Compound 6, 3-(4-Isopropyl-[1,2,3]thiadiazol-5-yl)-5-(5-methyl-pyridin-2-yl)-N-(5-methyl-pyrimidin-2-ylmethyl)-benzamide]
0.00891	0.0339	Cc1ccc(-c2cc(C(=O)NCc3cnc(C)nc3)cc(-c3snnc3C(C)C)c2)nc1 [Compound 5, 3-(4-Isopropyl-[1,2,3]thiadiazol-5-yl)-5-(5-methyl-pyridin-2-yl)-N-(2-methyl-pyrimidin-5-ylmethyl)-benzamide]
0.00427	0.214	Cc1ccc(-c2cc(C(=O)N[C@H](C)CO)cc(-c3snnc3C(C)C)c2)nc1 [Compound 4, N-((R)-2-Hydroxy-1-methyl-ethyl)-3-(4-isopropyl-[1,2,3]thiadiazol-5-yl)-5-(5-methyl-pyridin-2-yl)-benzamide]
